Molecules are shown by their SMILES. Where only a bound is given, the exact number is not on record here.

Here are results for 14 compounds from patent US20110305777A1, “DIMERIC IAP ANTAGONISTS” (Tetralogic Pharmaceuticals Corporation, priority 2006, published 2011).

One assay deals with XIAP BIR-3 and cIAP-1 BIR-3 (lower Kd of the two reported). Briefly: Fluorescence polarization binding to IAP-BIR3 (competition with AbuRPF-K(5-Fam)-NH2). As to conditions: Table 1; lower of the Kd for XIAP BIR-3 and cIAP-1 BIR-3. As to the method: The binding affinities of the compounds listed in Table 1 to an IAP were determined substantially as described by Nikolovska-Coleska, Z. et. al. (Analytical Biochemistry (2004), vol. 332:261-273) using a variety of fluorogenic substrates and is reported as a Kd value. Briefly, various concentrations of IAP antagonists were mixed with 5 nM fluorescently labeled peptide (AbuRPF-K(5-Fam)-NH2) and 40 nM of an IAP-BIR3 for 15 min at RT in […] of 0.1M Potassium Phosphate buffer, pH 7.5 containing […] bovine g-globulin. Following incubation, the polarization values (mP) were measured on a Victor2V using a 485 nm excitation filter and a 520 nm emission filter. IC50 values were determined from the plot using nonlinear least-squares analysis using GraphPad Prism. […] The reported Kd values are the lower of the Kd for XIAP BIR-3 and cIAP-1 BIR-3.
The following compound of the invention was also made and tested. The reported Kd value is the lower of the Kd for XIAP BIR-3 and cIAP-1 BIR-3.
On to `CNC(CO)C(=O)NC(C(=O)N1CCC(O)C1Cc1c(-c2[nH]c3cc(F)ccc3c2CC2C(O)CCN2C(=O)C(NC(=O)C(CO)NC)C(C)OC)[nH]c2cc(F)ccc12)C(C)OC` (centres unmarked) [B], for which the equilibrium dissociation constant (Kd) was < 100 nM. On to `CNC(C)C(=O)NC(C(=O)N1CCC(C)C1Cc1c(-c2[nH]c3cc(F)ccc3c2CC2C(C)CCN2C(=O)C(NC(=O)C(C)NC)C(C)OC)[nH]c2cc(F)ccc12)C(C)OC` (centres unmarked) [M], for which the Kd was < 100 nM. For the compound `CCNC(C)C(=O)NC(C(=O)N1CCC(OC)C1Cc1c(-c2[nH]c3cc(F)ccc3c2CC2C(OC)CCN2C(=O)C(NC(=O)C(C)NCC)C(C)(C)C)[nH]c2cc(F)ccc12)C(C)(C)C` (centres unmarked) [L], the Kd was < 100 nM. Consider `CCC(NC)C(=O)NC(C(=O)N1CCC(O)C1Cc1c(-c2[nH]c3cc(F)ccc3c2CC2C(O)CCN2C(=O)C(NC(=O)C(CC)NC)C(C)(C)C)[nH]c2cc(F)ccc12)C(C)(C)C` (centres unmarked) [D], for which the Kd was < 100 nM. As to `CCC(NC)C(=O)NC(C(=O)N1CCC(OC)C1Cc1c(-c2[nH]c3cc(F)ccc3c2CC2C(OC)CCN2C(=O)C(NC(=O)C(CC)NC)C(C)OC)[nH]c2cc(F)ccc12)C(C)OC` (centres unmarked) [H], the Kd is < 100 nM. On the same count and under the same terms, then `CCNC(C)C(=O)NC(C(=O)N1CCC(OC)C1Cc1c(-c2[nH]c3cc(F)ccc3c2CC2C(OC)CCN2C(=O)C(NC(=O)C(C)NCC)C(C)OC)[nH]c2cc(F)ccc12)C(C)OC` (centres unmarked) [K], with < 100 nM; and `CCC(NC)C(=O)NC(C(=O)N1CCC(OC)C1Cc1c(-c2[nH]c3cc(F)ccc3c2CC2C(OC)CCN2C(=O)C(NC(=O)C(CC)NC)C(C)(C)C)[nH]c2cc(F)ccc12)C(C)(C)C` (centres unmarked) [J], with 100 to 1000 nM; and `CNC(C)C(=O)NC(C(=O)N1CCC(O)C1Cc1c(-c2[nH]c3cc(F)ccc3c2CC2C(O)CCN2C(=O)C(NC(=O)C(C)NC)C(C)OC)[nH]c2cc(F)ccc12)C(C)OC` (centres unmarked) [A], with < 100 nM. On the same count and under the same terms, the value for `CNC(C)C(=O)NC(C(=O)N1CCC(OC)C1Cc1c(-c2[nH]c3cc(F)ccc3c2CC2C(OC)CCN2C(=O)C(NC(=O)C(C)NC)C(C)(C)C)[nH]c2cc(F)ccc12)C(C)(C)C` (centres unmarked) [I] was < 100 nM; that for `CCC(NC)C(=O)NC(C(=O)N1CCC(O)C1Cc1c(-c2[nH]c3cc(F)ccc3c2CC2C(O)CCN2C(=O)C(NC(=O)C(CC)NC)C(C)OC)[nH]c2cc(F)ccc12)C(C)OC` (centres unmarked) [F] was < 100 nM. For the compound `CNC(C)C(=O)NC(C(=O)N1CCC(O)C1Cc1c(-c2[nH]c3cc(F)ccc3c2CC2C(O)CCN2C(=O)C(NC(=O)C(C)NC)C(C)(C)C)[nH]c2cc(F)ccc12)C(C)(C)C` (centres unmarked) [C], the Kd is < 100 nM. Same read-out and setting: the value for `CCNC(C)C(=O)NC(C(=O)N1CCC(O)C1Cc1c(-c2[nH]c3cc(F)ccc3c2CC2C(O)CCN2C(=O)C(NC(=O)C(C)NCC)C(C)OC)[nH]c2cc(F)ccc12)C(C)OC` (centres unmarked) [E] was < 100 nM; that for `CNC(C)C(=O)NC(C(=O)N1CCC(OC)C1Cc1c(-c2[nH]c3cc(F)ccc3c2CC2C(OC)CCN2C(=O)C(NC(=O)C(C)NC)C(C)OC)[nH]c2cc(F)ccc12)C(C)OC` (centres unmarked) [G] was < 100 nM.

Still in this assay, the particulars now being: Table 4; lower of the Kd for XIAP BIR-3 and cIAP-1 BIR-3.
For `CNC(C)(C)C(=O)NC(C(=O)N1CC(O)CC1Cc1c(-c2[nH]c3cc(F)ccc3c2CC2CC(O)CN2C(=O)C(NC(=O)C(C)(C)NC)C(C)OC)[nH]c2cc(F)ccc12)C(C)OC` (centres unmarked) [N], the Kd was in the range of 100 to 1000 nM.
